According to US20070128217A1 (priority 2003, published 2007):

Assays:
[1] = tested on: control sera (pooled serum of ten healthy LUMC hospital workers; commercial negative donor pooled serum from the Dutch bloodbank); assay type: binding, human; design: Binding of Control serum LUMC to linear peptides / Binding of Control serum Blood-bank to linear peptides / Binding of Control serum LUMC to looped peptides / Binding of Control Serum Blood-Bank to Looped peptides / Binding of Control serum LUMC to linear peptides of the protein M of SARS-CoV Urbani / Binding of Control serum Blood-bank to linear peptides of the protein M of SARS-CoV Urbani / Binding of Control serum LUMC to looped peptides of the protein M of SARS-CoV Urbani / Binding of Control Serum Blood-Bank to Looped peptides of the protein M of SARS-CoV Urbani: unit not given here
[2] = tested on: antibodies in sera from SARS patients (sera 1a, 1b, 2, 6, 37, 62, London, SARS-yellow, SARS-green); assay type: binding, human; design: Binding of serum 6 to linear peptides of protein X1 of SARS-CoV Urbani / Binding of serum 37 to linear peptides of protein X1 of SARS-CoV Urbani / Binding of serum 6 to looped/cyclic peptide (PEPSCAN-ELISA) / Binding of serum 37 to looped/cyclic peptide (PEPSCAN-ELISA) / Binding of serum 37 to looped/cyclic peptides of protein X1 of SARS-CoV Urbani / Binding of serum 6 to linear peptides of protein X2 / Binding of serum 37 to linear peptides of protein X2 / Binding of serum 37 to looped/cyclic peptides of protein X2 of SARS-CoV Urbani / Binding of serum 6 to linear peptides of protein M of SARS-CoV Urbani / Binding of serum 37 to linear peptides of protein M of SARS-CoV Urbani / Binding of serum 6 to looped/cyclic peptides of protein M of SARS-CoV Urbani / Binding of serum 37 to looped/cyclic peptides of protein M of SARS-CoV Urbani / Binding of serum 6 to linear peptides of protein X3 of SARS-CoV Urbani / Binding of serum 37 to linear peptides of protein X3 of SARS-CoV Urbani / Binding of serum 37 to looped/cyclic peptides of protein X3 of SARS-CoV Urbani / Binding of serum 6 to linear peptides of protein X4 of SARS-CoV Urbani / Binding of serum 37 to linear peptides of protein X4 of SARS-CoV Urbani / Binding of serum 37 to looped/cyclic peptides of protein X4 of SARS-CoV Urbani / Binding of serum 6 to linear peptides of protein X5 of SARS-CoV Urbani / Binding of serum 37 to linear peptides of protein X5 of SARS-CoV Urbani / Binding of serum 37 to looped/cyclic peptides of protein X5 of SARS-CoV Urbani / Binding of serum 6 to linear peptides of protein N of SARS-CoV Urbani / Binding of serum 37 to linear peptides of protein N of SARS-CoV Urbani / Binding of serum 6 to linear peptide (PEPSCAN-ELISA) / Binding of serum 1a to looped/cyclic peptides of protein N of SARS-CoV Urbani / Binding of serum 1b to looped/cyclic peptides of protein N of SARS-CoV Urbani / Binding of serum 2 to looped/cyclic peptides of protein N of SARS-CoV Urbani / Binding of serum 6 to looped/cyclic peptides of protein N of SARS-CoV Urbani / Binding of serum 37 to looped/cyclic peptides of protein N of SARS-CoV Urbani / Binding of serum 62 to looped/cyclic peptides of protein N of SARS-CoV Urbani / Binding of serum London to looped/cyclic peptides of protein N of SARS-CoV Urbani / Binding of serum SARS-green to looped/cyclic peptides of protein N of SARS-CoV Urbani: unit not given here
[3] = tested on: rabbit serum obtained by immunizing a rabbit with the SARS-CoV strain Frankfurt 1; assay type: binding; design: Binding of a rabbit serum to linear peptides / Binding of a rabbit serum to looped peptides / Rabbit serum linear peptides / Rabbit serum looped peptides / Binding of a rabbit serum to linear peptides of protein N of SARS-CoV Urbani (Rabbit serum linear peptides) / Binding of a rabbit serum to looped/cyclic peptides of protein N of SARS-CoV Urbani (Rabbit serum looped peptides): unit not given here

ATATIPLQASLPFGW
Binding of Control Serum Blood-Bank to Looped peptides [1]: 0.8
Binding of Control serum Blood-bank to linear peptides [1]: 0.9
Binding of Control serum LUMC to linear peptides [1]: 0.7
Binding of Control serum LUMC to looped peptides [1]: 0.7
Binding of serum 1a to linear peptides of protein X1 of SARS-CoV Urbani [2]: 0.9
Binding of serum 1a to looped/cyclic peptide (PEPSCAN-ELISA) [2]: 0.6
Binding of serum 1b to linear peptides of protein X1 of SARS-CoV Urbani [2]: 0.7
Binding of serum 1b to looped/cyclic peptide (PEPSCAN-ELISA) [2]: 0.5
Binding of serum 2 to linear peptides of protein X1 of SARS-CoV Urbani [2]: 0.7
Binding of serum 2 to looped/cyclic peptide (PEPSCAN-ELISA) [2]: 0.5
Binding of serum 6 to linear peptides of protein X1 of SARS-CoV Urbani [2]: 0.7
Binding of serum 6 to looped/cyclic peptide (PEPSCAN-ELISA) [2]: 0.5
Binding of serum 37 to linear peptides of protein X1 of SARS-CoV Urbani [2]: 0.7
Binding of serum 37 to looped/cyclic peptide (PEPSCAN-ELISA) [2]: 0.7
Binding of serum 62 to linear peptides of protein X1 of SARS-CoV Urbani [2]: 0.8
Binding of serum 62 to looped/cyclic peptide (PEPSCAN-ELISA) [2]: 0.7
Binding of serum London to linear peptides of protein X1 of SARS-CoV Urbani [2]: 0.4
Binding of serum London to looped/cyclic peptide (PEPSCAN-ELISA) [2]: 0.3
Binding of serum SARS-green to linear peptides of protein X1 of SARS-CoV Urbani [2]: 0.4
Binding of serum SARS-green to looped/cyclic peptide (PEPSCAN-ELISA) [2]: 0.3
Binding of serum SARS-yellow to linear peptides of protein X1 of SARS-CoV Urbani [2]: 0.5
Binding of serum SARS-yellow to looped/cyclic peptide (PEPSCAN-ELISA) [2]: 0.4
Binding of a rabbit serum to linear peptides [3]: 0.1
Binding of a rabbit serum to looped peptides [3]: 0.6

ATIPLQASLPFGWLV
Binding of Control Serum Blood-Bank to Looped peptides [1]: 0.7
Binding of Control serum Blood-bank to linear peptides [1]: 0.8
Binding of Control serum LUMC to linear peptides [1]: 0.5
Binding of Control serum LUMC to looped peptides [1]: 0.7
Binding of serum 1a to linear peptides of protein X1 of SARS-CoV Urbani [2]: 0.7
Binding of serum 1a to looped/cyclic peptide (PEPSCAN-ELISA) [2]: 0.6
Binding of serum 1b to linear peptides of protein X1 of SARS-CoV Urbani [2]: 0.5
Binding of serum 1b to looped/cyclic peptide (PEPSCAN-ELISA) [2]: 0.5
Binding of serum 2 to linear peptides of protein X1 of SARS-CoV Urbani [2]: 0.6
Binding of serum 2 to looped/cyclic peptide (PEPSCAN-ELISA) [2]: 0.6
Binding of serum 6 to linear peptides of protein X1 of SARS-CoV Urbani [2]: 0.6
Binding of serum 6 to looped/cyclic peptide (PEPSCAN-ELISA) [2]: 0.4
Binding of serum 37 to linear peptides of protein X1 of SARS-CoV Urbani [2]: 0.7
Binding of serum 37 to looped/cyclic peptide (PEPSCAN-ELISA) [2]: 0.7
Binding of serum 62 to linear peptides of protein X1 of SARS-CoV Urbani [2]: 0.7
Binding of serum 62 to looped/cyclic peptide (PEPSCAN-ELISA) [2]: 0.7
Binding of serum London to linear peptides of protein X1 of SARS-CoV Urbani [2]: 0.3
Binding of serum London to looped/cyclic peptide (PEPSCAN-ELISA) [2]: 0.3
Binding of serum SARS-green to linear peptides of protein X1 of SARS-CoV Urbani [2]: 0.2
Binding of serum SARS-green to looped/cyclic peptide (PEPSCAN-ELISA) [2]: 0.4
Binding of serum SARS-yellow to linear peptides of protein X1 of SARS-CoV Urbani [2]: 0.3
Binding of serum SARS-yellow to looped/cyclic peptide (PEPSCAN-ELISA) [2]: 0.3
Binding of a rabbit serum to linear peptides [3]: 0.1
Binding of a rabbit serum to looped peptides [3]: 0.5

ATSRTLSYYKLGASQ
Binding of Control Serum Blood-Bank to Looped peptides of the protein M of SARS-CoV Urbani [1]: 0.6
Binding of Control serum Blood-bank to linear peptides of the protein M of SARS-CoV Urbani [1]: 0.7
Binding of Control serum LUMC to linear peptides of the protein M of SARS-CoV Urbani [1]: 0.3
Binding of Control serum LUMC to looped peptides of the protein M of SARS-CoV Urbani [1]: 0.6
Binding of serum 1a to linear peptides of protein M of SARS-CoV Urbani [2]: 0.7
Binding of serum 1a to looped/cyclic peptides of protein M of SARS-CoV Urbani [2]: 0.8
Binding of serum 1b to linear peptides of protein M of SARS-CoV Urbani [2]: 0.5
Binding of serum 1b to looped/cyclic peptides of protein M of SARS-CoV Urbani [2]: 0.2
Binding of serum 2 to linear peptides of protein M of SARS-CoV Urbani [2]: 0.7
Binding of serum 2 to looped/cyclic peptides of protein M of SARS-CoV Urbani [2]: 0.6
Binding of serum 6 to linear peptides of protein M of SARS-CoV Urbani [2]: 0.3
Binding of serum 6 to looped/cyclic peptides of protein M of SARS-CoV Urbani [2]: 0.8
Binding of serum 37 to linear peptides of protein M of SARS-CoV Urbani [2]: 0.8
Binding of serum 37 to looped/cyclic peptides of protein M of SARS-CoV Urbani [2]: 0.6
Binding of serum 62 to linear peptides of protein M of SARS-CoV Urbani [2]: 0.7
Binding of serum 62 to looped/cyclic peptides of protein M of SARS-CoV Urbani [2]: 0.5
Binding of serum London to linear peptides of protein M of SARS-CoV Urbani [2]: 0.3
Binding of serum London to looped/cyclic peptides of protein M of SARS-CoV Urbani [2]: 0.3
Binding of serum SARS-green to linear peptides of protein M of SARS-CoV Urbani [2]: 0.2
Binding of serum SARS-green to looped/cyclic peptides of protein M of SARS-CoV Urbani [2]: 0.3
Binding of serum SARS-yellow to linear peptides of protein M of SARS-CoV Urbani [2]: 0.1
Binding of serum SARS-yellow to looped/cyclic peptides of protein M of SARS-CoV Urbani [2]: 0.7
Rabbit serum linear peptides [3]: 0.6
Rabbit serum looped peptides [3]: 0.4
